Assay results from patent US11980609B2, “LPA receptor antagonists and uses thereof” (Gilead Sciences, Inc., priority 2021, dated 2024).

Each compound was assayed against T1, human LPAR1 (Homo sapiens, UniProt Q92633) (assay: LPAR1 intracellular calcium mobilization assay (antagonist mode)). Details: CHO-K1 EDG2 cells expressing human LPAR1; 60 min pre-incubation with compound (0.5 nM to 10 μM), then LPA 18:2 challenge; FLIPR Tetra calcium signal.
T1 construct: host or cells: CHO-K1
Type: cell-based
Experimental: In vitro LPAR1 activity was measured in an intracellular calcium mobilization assay.
CHO-K1 EDG2 cells (DiscoverX cat #93-0644C2) expressing human LPAR1 (NM_001401.3) were seeded in a total volume of 25 μL of Dulbecco's Modification of Eagle's Medium (DMEM) with 10% Fetal Bovine Serum, 1× PenStrepGlutamine, 300 μg/ml Hygromycin, and 800 μg/ml G418 into 384-well tissue culture plate (Grenier #781091) at 15,000 cells/well and incubated at 37° C. overnight. Prior to testing, 25 μL Calcium Loading Dye Component A (FLIPR Calcium 6 Assay Kit Molecular Device #R8190) and 2.5 mM Probenecid (Invitrogen #P36400, prepared fresh) in Hank's Balanced Salt Solution (Corning #21-023-CV), 20 mM HEPES (Corning #25-060-CI), 0.1% Bovine Serum Albumin (Sigma-Aldrich #A7906-500G) was add to the cells for 60 minutes at 37° C.
Agonist dose curves of LPA 18:2 (Avanti Polar Lipids cat #857138, 0.5 nM to 10 μM) were recorded to determine the LPA 18:2 EC80 for subsequent antagonist assays. For agonist dose curves, cells were removed from the incubator 2 hours after dye loading and transferred to the FLIPR Tetra instrument (Molecular Devices, San Jose, CA). Calcium mobilization was monitored for 5 min and 10 μL 6×LPA in HBSS/20 mM Hepes/0.1% bovine serum albumin (BSA) was added to the cells 5 seconds into the assay.
To determine the LPAR1 antagonist activity of test compounds, cells were pre-incubated with test compound at a dose range of 0.5 nM to 10 μM, followed by LPA at […] concentration (100 nM). After dye loading, cells were removed from the incubator and 0.3 μL of 200× antagonist was added. Cells were incubated for 60 minutes at 37° C. Antagonist activity was measured on a FLIPR Tetra. Calcium mobilization was monitored for 3.5 minutes and 10 μL 6×EC80 LPA in HBSS, 20 mM HEPES, and 0.1% BSA was added to the cells 5 seconds into the assay. Signal amplitude (Maximum minus minimum) values were plotted against log10 of antagonist concentration using Dose Response Tool (Gilead Sciences Inc.) to determine EC50.
To assess the antagonistic potential of exemplified compounds EC50 values were determined for Compounds 1 to 55 in the LPAR1 calcium mobilization assay. The compound numbers correspond to the compound numbers in Examples 1 to 35. N/A=not available.

T1 sequence (Q92633 whole entry): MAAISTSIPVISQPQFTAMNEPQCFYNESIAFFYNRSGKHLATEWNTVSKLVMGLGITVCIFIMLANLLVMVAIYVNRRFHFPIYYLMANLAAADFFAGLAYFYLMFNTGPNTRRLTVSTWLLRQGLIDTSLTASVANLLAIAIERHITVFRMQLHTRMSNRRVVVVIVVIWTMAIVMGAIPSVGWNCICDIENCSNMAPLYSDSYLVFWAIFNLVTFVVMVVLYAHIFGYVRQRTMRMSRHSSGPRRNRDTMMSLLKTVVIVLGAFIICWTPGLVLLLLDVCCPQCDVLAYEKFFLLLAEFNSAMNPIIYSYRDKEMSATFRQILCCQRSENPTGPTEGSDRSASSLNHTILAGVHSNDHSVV

EC50 [nM]	Compound
799	C[C@@H](OC(=O)Nc1c(-c2ncc(C(=O)NC34CC(F)(C3)C4)cn2)cnn1C)c1cc(F)cnc1F [Compound 47, (R)-1-(2,5-difluoropyridin-3-yl)ethyl (4-(5-((3-fluorobicyclo[1.1.1]pentan-1-yl)carbamoyl)pyrimidin-2-yl)-1-methyl-1H-pyrazol-5-yl)carbamate]
1860	C[C@@H](OC(=O)Nc1c(-c2ccc(C(=O)NC34CC(C#N)(C3)C4)cn2)cnn1C)c1cccc(F)c1 [Compound 49]
869	C[C@@H](OC(=O)Nc1c(-c2ccc(C(=O)NC34CC(F)(C3)C4)cn2)cnn1C)c1cccnc1Cl [Compound 50]
36.4	C[C@@H](OC(=O)Nc1c(-c2ncc(NS(C)(=O)=O)cn2)cnn1C)c1ccccc1F [Compound 51, (R)-1-(2-fluorophenyl)ethyl (1-methyl-4-(5-(methylsulfonamido)pyrimidin-2-yl)-1H-pyrazol-5-yl)carbamate]
745	C[C@@H](OC(=O)Nc1c(-c2ncc(C(O)C(F)(F)F)cn2)cnn1C)c1cc(F)cnc1F (stereo partly drawn) [Compound 53, (R)-1-(2,5-difluoropyridin-3-yl)ethyl (1-methyl-4-(5-(2,2,2-trifluoro-1-hydroxyethyl)pyrimidin-2-yl)-1H-pyrazol-5-yl)carbamate]
2880	C[C@@H](OC(=O)Nc1c(-c2ncc(C(F)F)cn2)cnn1C)c1cc(F)cnc1F [Compound 54, (R)-1-(2,5-difluoropyridin-3-yl)ethyl (4-(5-(difluoromethyl)pyrimidin-2-yl)-1-methyl-1H-pyrazol-5-yl)carbamate]
1780	C[C@@H](OC(=O)Nc1c(-c2ncc(OC(F)F)cn2)cnn1C)c1cc(F)cnc1F [Compound 55, (R)-1-(2,5-difluoropyridin-3-yl)ethyl (4-(5-(difluoromethoxy)pyrimidin-2-yl)-1-methyl-1H-pyrazol-5-yl)carbamate]

More lines, now with the values behind:

Compound	EC50 [nM]
C[C@@H](OC(=O)Nc1c(-c2ncc(NC(=O)[C@]3(C)C[C@@H](C#N)C3)cn2)cnn1C)c1cc(F)cnc1F [Compound 38, (R)-1-(2,5-difluoropyridin-3-yl)ethyl (4-(5-((1r,3R)-3-cyano-1-methylcyclobutane-1-carboxamido)pyrimidin-2-yl)-1-methyl-1H-pyrazol-5-yl)carbamate]	52.7
C[C@@H](OC(=O)Nc1c(-c2ncc(NC(=O)[C@@H]3C[C@H]3C#N)cn2)cnn1C)c1cc(F)cnc1F [Compound 39, (R)-1-(2,5-difluoropyridin-3-yl)ethyl (4-(5-((1R,2R)-2-cyanocyclopropane-1-carboxamido)pyrimidin-2-yl)-1-methyl-1H-pyrazol-5-yl)carbamate]	66.7
C[C@@H](OC(=O)Nc1c(-c2ncc(NC(=O)[C@@H]3C[C@H]3C(F)(F)F)cn2)cnn1C)c1cccnc1F [Compound 40, (R)-1-(2-fluoropyridin-3-yl)ethyl (1-methyl-4-(5-((1R,2R)-2-(trifluoromethyl)cyclopropane-1-carboxamido)pyrimidin-2-yl)-1H-pyrazol-5-yl)carbamate]	< 4.6
C[C@@H](OC(=O)Nc1c(-c2ncc(NC(=O)C3(C)CC(F)(F)C3)cn2)cnn1C)c1cccnc1F [Compound 41, (R)-1-(2-fluoropyridin-3-yl)ethyl (4-(5-(3,3-difluoro-1-methylcyclobutane-1-carboxamido)pyrimidin-2-yl)-1-methyl-1H-pyrazol-5-yl)carbamate]	20.7
C[C@@H](OC(=O)Nc1c(-c2ncc(NC(=O)C3(C#N)CC3)cn2)cnn1C)c1cccnc1F [Compound 42, (R)-1-(2-fluoropyridin-3-yl)ethyl (4-(5-(1-cyanocyclopropane-1-carboxamido)pyrimidin-2-yl)-1-methyl-1H-pyrazol-5-yl)carbamate]	54.9
COC1(C#N)CC(C(=O)Nc2cnc(-c3cnn(C)c3NC(=O)O[C@H](C)c3cc(F)cnc3F)nc2)C1 (stereo partly drawn) [Compound 43, (R)-1-(2,5-difluoropyridin-3-yl)ethyl (4-(5-(3-cyano-3-methoxycyclobutane-1-carboxamido)pyrimidin-2-yl)-1-methyl-1H-pyrazol-5-yl)carbamate]	22.6
C[C@@H](OC(=O)Nc1c(-c2ncc(O)cn2)cnn1C)c1cccnc1Cl [Compound 44, (R)-1-(2-chloropyridin-3-yl)ethyl (4-(5-hydroxypyrimidin-2-yl)-1-methyl-1H-pyrazol-5-yl)carbamate]	120
C[C@@H](OC(=O)Nc1c(-c2ncc(O)cn2)cnn1C)c1cc(F)cnc1F [Compound 45, (R)-1-(2,5-difluoropyridin-3-yl)ethyl (4-(5-hydroxypyrimidin-2-yl)-1-methyl-1H-pyrazol-5-yl)carbamate]	301
C[C@@H](OC(=O)Nc1c(-c2ncc(C(=O)NC34CC(C#N)(C3)C4)cn2)cnn1C)c1cc(F)cnc1F [Compound 46, (R)-1-(2,5-difluoropyridin-3-yl)ethyl (4-(5-((3-cyanobicyclo[1.1.1]pentan-1-yl)carbamoyl)pyrimidin-2-yl)-1-methyl-1H-pyrazol-5-yl)carbamate]	158
